Starred links: 1 amine or outer side, 2 acyl side, 3 side chain; linkers in the order of their positions; H or OH if unused. Positions of bridges follow the written chain, without caps; N, C: chain ends. Non-standard residues stand in square brackets, D forms with d. Residues, ends and D or L forms follow the SMILES beside them. Groups on a side chain read outwards from the residue. ξ: configuration not given here. *: point of attachment. Ala(piperidin-4-yl) = O=C([C@H](CC1CCN([*:3])CC1)N[*:1])[*:2]; DOTA = O=C(O)CN1CCN(CC(=O)O)CCN(CC(=O)*)CCN(CC(=O)O)CC1; Phe(4-COOH) = N[C@@H](Cc1ccc(C(=O)O)cc1)C(=O)O; Trp(5-F) = N[C@@H](Cc1c[nH]c2ccc(F)cc12)C(=O)O; PEG8 = NCCOCCOCCOCCOCCOCCOCCOCCOCCC(=O)O; 1Nal = N[C@@H](Cc1cccc2ccccc12)C(=O)O; Ala(4-THP) = N[C@@H](CC1CCOCC1)C(=O)O; Val(3-OH) = CC(C)(O)[C@H](N)C(=O)O; 4Pal = N[C@@H](Cc1ccncc1)C(=O)O; PEG4 = NCCOCCOCCOCCOCCC(=O)O; Tle = CC(C)(C)[C@H](N)C(=O)O; hLeu = CC(C)CC[C@H](N)C(=O)O; NMeS = CN[C@@H](CO)C(=O)O; Nle = CCCC[C@H](N)C(=O)O; ξP = O=C(O)C1CCCN1

For the test, the target named is T1, human 4lg B7-H3 (Homo sapiens, UniProt Q5ZPR3).
T1 sequence (Q5ZPR3 29-534): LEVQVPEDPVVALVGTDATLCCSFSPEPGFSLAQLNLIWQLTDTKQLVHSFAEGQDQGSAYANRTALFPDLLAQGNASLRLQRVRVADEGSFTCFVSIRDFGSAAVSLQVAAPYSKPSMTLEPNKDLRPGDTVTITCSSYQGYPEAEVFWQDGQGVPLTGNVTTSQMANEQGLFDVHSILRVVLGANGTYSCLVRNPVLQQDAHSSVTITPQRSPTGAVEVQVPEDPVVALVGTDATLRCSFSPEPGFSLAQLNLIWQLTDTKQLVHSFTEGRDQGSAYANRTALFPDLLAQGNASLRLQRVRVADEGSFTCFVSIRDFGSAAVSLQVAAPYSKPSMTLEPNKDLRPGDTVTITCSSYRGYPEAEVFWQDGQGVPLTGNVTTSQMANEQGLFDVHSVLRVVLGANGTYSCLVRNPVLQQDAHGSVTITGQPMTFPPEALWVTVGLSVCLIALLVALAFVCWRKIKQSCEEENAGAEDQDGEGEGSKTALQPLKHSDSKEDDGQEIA
Briefly: Affinity determination by surface plasmon resonance (SPR) to 4Ig B7-H3. The note with it: 4Ig B7-H3. A general note: Surface plasmon resonance follows binding to a sensor surface in real time, without labels.

Where [1] appears, read: SPR KD—25° C., 25° C. flow cell temperature.

As to `CC(=O)N[C@@H](CCC(C)C)C(=O)N[C@@H](Cc1ccc(O)cc1)C(=O)N[C@H]1CSSC[C@@H](C(=O)N[C@@H](Cc2c[nH]c3ccccc23)C(=O)N[C@@H](Cc2ccccc2)C(=O)N[C@H](C(N)=O)[C@@H](C)O)NC(=O)[C@H](Cc2ccc(O)cc2)NC(=O)[C@H](C(C)C)NC(=O)[C@H](CC(=O)O)NC(=O)[C@H](Cc2ccc(O)cc2)NC(=O)[C@H](CCCCNC(=O)CN2CCN(CC(=O)O)CCN(CC(=O)O)CCN(CC(=O)O)CC2)NC(=O)CNC(=O)[C@H](C(C)C)NC1=O` [compound 145, Ac-hLeu-Y-C-V-G-Lys(DOTA)-Y-D-V-Y-C-W-F-Thr-CONH2] (Ac-[hLeu]YCVGK(DOTA)YDVYCWFT-NH2; disulfide 3-11), the Kd (commonly the free concentration of one partner at which half of the binding sites on the other are occupied at equilibrium, for simple one-to-one binding) under setting [1] is 1 to 10 nM.
Consider `CCCC[C@@H]1NC(=O)[C@H](C(C)C)NC(=O)[C@H](CC(=O)O)NC(=O)[C@H](Cc2ccc(C(=O)O)cc2)NC(=O)[C@H](CCCCN)NC(=O)CNC(=O)[C@H](C(C)C)NC(=O)[C@@H](NC(=O)[C@H](Cc2ccc(O)cc2)NC(=O)[C@H](CCC(C)C)NC(=O)CCOCCOCCOCCOCCOCCOCCOCCOCCNC(=O)CN2CCN(CC(=O)O)CCN(CC(=O)O)CCN(CC(=O)O)CC2)CSSC[C@@H](C(=O)N[C@@H](Cc2c[nH]c3ccc(F)cc23)C(=O)N[C@@H](Cc2ccccc2)C(=O)N2CCC[C@H]2C(N)=O)NC1=O` [compound 293, DOTA-PEG8-hLeu-Y-C-V-G-K-4COOHPhe-D-V-Nle-C-5FW-F-Pro-CONH2] ({DOTA-PEG8}-[hLeu]YCVGK[Phe(4-COOH)]DV[Nle]C[Trp(5-F)]FP-NH2; disulfide 3-11), for which, under setting [1], the Kd was 10 to 100 nM.
For the setting “SPR KD—37° C., 37° C. flow cell temperature”, `CC(=O)N[C@@H](CCC(C)C)C(=O)N[C@@H](Cc1ccc(O)cc1)C(=O)N[C@H]1CSSC[C@@H](C(=O)N[C@@H](Cc2c[nH]c3ccc(F)cc23)C(=O)N[C@@H](Cc2ccccc2)C(=O)N[C@H](C(=O)N[C@H](CO)C(=O)O)C(C)(C)O)NC(=O)[C@H](Cc2ccc(O)cc2)NC(=O)[C@H](C(C)C)NC(=O)[C@H](CC(=O)O)NC(=O)[C@H](CC2CCN(C(=O)CCOCCOCCOCCOCCNC(=O)CN3CCN(CC(=O)O)CCN(CC(=O)O)CCN(CC(=O)O)CC3)CC2)NC(=O)[C@H](CC2CCOCC2)NC(=O)CNC(=O)[C@H](C(C)(C)C)NC1=O` [compound 484, Ac-hLeu-Y-C-Tbg-G-ThpA-Pip(PEG4-DOTA)Ala-D-V-Y-C-5FW-F-hydroxyVal-dSer-COOH] (Ac-[hLeu]YC[Tle]G[Ala(4-THP)][Ala(piperidin-4-yl)]([PEG4-DOTA])DVYC[Trp(5-F)]F[Val(3-OH)][dS]-OH; disulfide 3-11) gave an equilibrium dissociation constant (Kd) of less than 1 nM.
Under setting [1], `CC(=O)N[C@@H](CCC(C)C)C(=O)N[C@@H](Cc1ccc(O)cc1)C(=O)N[C@H]1CSSC[C@@H](C(=O)N[C@@H](Cc2cccc3ccccc23)C(=O)N[C@@H](Cc2ccccc2)C(=O)N(C)[C@@H](CO)C(=O)N[C@H](CCCCNC(=O)CN2CCN(CC(=O)O)CCN(CC(=O)O)CCN(CC(=O)O)CC2)C(N)=O)NC(=O)[C@H](Cc2ccc(O)cc2)NC(=O)[C@H](C(C)C)NC(=O)[C@H](CC(=O)O)NC(=O)[C@H](Cc2ccncc2)NC(=O)[C@H](CCCCN)NC(=O)CNC(=O)[C@H](C(C)(C)C)NC1=O` [compound 219, Ac-hLeu-Y-C-Tbg-G-K-4PyA-D-V-Y-C-1Nal-F-NMeSer-dLys(DOTA)-CONH2] (Ac-[hLeu]YC[Tle]GK[4Pal]DVYC[1Nal]F[NMeS][dK](DOTA)-NH2; disulfide 3-11) showed a Kd of 1 to 10 nM.
The same measure, in the same setting: in the case of `COc1ccc(C[C@@H]2NC(=O)[C@H](C(C)C)NC(=O)[C@H](CC(=O)O)NC(=O)[C@H](Cc3ccncc3)NC(=O)[C@H](CCCCNC(=O)CN3CCN(CC(=O)O)CCN(CC(=O)O)CCN(CC(=O)O)CC3)NC(=O)CNC(=O)[C@H](C(C)C)NC(=O)[C@@H](NC(=O)[C@H](Cc3ccc(O)cc3)NC(=O)[C@H](CCC(C)C)NC(C)=O)CSSC[C@@H](C(=O)N[C@@H](Cc3cccc4ccccc34)C(=O)N[C@@H](Cc3ccccc3)C(=O)N3CCCC3C(N)=O)NC2=O)cc1` (stereo partly drawn) [compound 309, Ac-hLeu-Y-C-V-G-Lys(DOTA)-4PyA-D-V-OMeTyr-C-1Nal-F-Pro-CONH2] (Ac-[hLeu]YCVGK(DOTA)[4Pal]DVY(Me)C[1Nal]F[ξP]-NH2; disulfide 3-11) it was 1 to 10 nM.

The values are drawn from patent US20250296959A1, “B7-H3 TARGETING PEPTIDES AND CONSTRUCTS THEREOF” (Mariana Oncology Inc., priority 2024, published 2025).
